Data: article PMC8900257 (ACS chemical biology, 2019)
“And” between values parts separate entries of the source, which are not always exact repeats. Equal values may be shown once. Read-outs that look alike come from different tables or passages of the source.

Legend:
M. tuberculosis H37Rv = assay: M. tuberculosis growth inhibition; assay type: cell-based, Mycobacterium tuberculosis; details: for MIC: Mycobacterium tuberculosis, H37RV, read-out: Mycobacterium Growth inhibition, MIC (μM) tuberculosis, Table 2, this study
M. tuberculosis [1] = details: Table 1; nd = no detected effect; ref PubChem Bioassay AID 449762; cited from earlier work
[2] = tested on: M. tuberculosis H37Rv fructose-bisphosphate aldolase (FBA); details: ref PubChem Bioassay AID 588726; cited from earlier work
M. tuberculosis [3] = details: Table 1; values deduced from ref PubChem Bioassay AID 1626; cited from earlier work
[4] = tested on: non-replicating M. smegmatis; assay: Cell viability by CFU assay under carbon starvation; assay type: cell-based, Mycobacterium smegmatis; details: Mycolicibacterium smegmatis, 96 h, read-out: colony forming unit (CFU) reduction
NAD pool = NAD pool level in M. smegmatis, colorimetric detection kit; assay type: cell-based, Mycobacterium smegmatis

Structure (SMILES) | Mycobacterium Growth inhibition MIC (μM) tuberculosis e (M. tuberculosis [1]) [µM] | Enzyme inhibition (%) at 1 μM MtFBA [2] | also measured
Cc1ccccc1OCc1n(CC(=O)OC2CC(C)CCC2C(C)C)c2ccccc2[n+]1C (stereo not drawn) [N2–9] | – | – | MIC (M. tuberculosis H37Rv): 38.5 µM
CCn1cc(C(=O)NC(C)C)c(=O)c2cc(F)c(N3CCN(C(=O)c4ccco4)CC3)cc21 [N1–1] | >25 | 54.81% | –
CCC(C)NC(=O)c1cn(CC)c2cc(N3CCN(C(=O)c4ccco4)CC3)c(F)cc2c1=O (stereo not drawn) [N1–2] | 50 | 54.28% | –
CCn1cc(C(=O)NCc2ccncc2)c(=O)c2cc(F)c(N3CCN(C(=O)c4ccco4)CC3)cc21 [N1–16] | – | 41.76% | Mycobacterium Growth inhibition MIC (μM) tuberculosis d (M. tuberculosis [3]): >100 µM
CC1CCC(C(C)C)C(OC(=O)Cn2c(COc3ccccc3)[n+](C)c3ccccc32)C1 (stereo not drawn) [N2–8] | – | – | MIC (M. tuberculosis H37Rv): 21.2 µM; log reduction at 25 µM [4]: > 2
CCn1cc(C(=O)NCc2ccco2)c(=O)c2cc(F)c(N3CCN(C(=O)c4ccco4)CC3)cc21 [N1–29] | <25 | 19.8% | Mycobacterium Growth inhibition MIC (μM) tuberculosis d (M. tuberculosis [3]): >10 µM
CCCCNC(=O)c1cn(CC)c2cc(N3CCN(C(=O)c4ccco4)CC3)c(F)cc2c1=O [N1–5] | >25 | 22.14% | –
CCN(CC)CCNC(=O)c1cn(CC)c2cc(N3CCN(C(=O)c4ccco4)CC3)c(F)cc2c1=O [N1–30] | – | 22.17% | Mycobacterium Growth inhibition MIC (μM) tuberculosis d (M. tuberculosis [3]): >100 µM
COc1ccc(-c2n(CC(=O)OC3CC(C)CCC3C(C)C)c3ccccc3[n+]2C)cc1 (stereo not drawn) [N2–7] | – | – | NAD pool depletion (NAD pool): rapid depletion of the NAD pool
CCn1cc(C(=O)NCCC(C)C)c(=O)c2cc(F)c(N3CCN(C(=O)c4ccco4)CC3)cc21 [N1–7] | >25 | 14.68% | –
C=CCNC(=O)c1cn(CC)c2cc(N3CCN(C(=O)c4ccco4)CC3)c(F)cc2c1=O [N1–4] | 25 | 97.0% | –
CCN(CC)CCCNC(=O)c1cn(CC)c2cc(N3CCN(C(=O)c4ccco4)CC3)c(F)cc2c1=O [N1–31] | >25 | 54.21% | –
CC1CCC(C(C)C)C(OC(=O)Cn2c[n+](CC(=O)OC3CC(C)CCC3C(C)C)c3ccccc32)C1 (stereo not drawn) [N2–1] | – | – | MIC (M. tuberculosis H37Rv): 46.7 µM
CCn1cc(C(=O)NCc2cccc(F)c2)c(=O)c2cc(F)c(N3CCN(C(=O)c4ccco4)CC3)cc21 [N1–13] | 25 | 40% and 38.2% | Mycobacterium Growth inhibition MIC (μM) tuberculosis d (M. tuberculosis [3]): 12.5 µM
CCn1cc(C(=O)NCc2ccccc2)c(=O)c2cc(F)c(N3CCN(C(=O)c4ccco4)CC3)cc21 [N1–10] | 25 | 20% and 20.43% | Mycobacterium Growth inhibition MIC (μM) tuberculosis d (M. tuberculosis [3]): <10 µM
Cc1ccc(OCc2n(CC(=O)OC3CC(C)CCC3C(C)C)c3ccccc3[n+]2C)cc1 (stereo not drawn) [N2–10] | – | – | MIC (M. tuberculosis H37Rv): 19.7 µM
CCn1cc(C(=O)NCC(C)C)c(=O)c2cc(F)c(N3CCN(C(=O)c4ccco4)CC3)cc21 [N1–6] | – | 11.37% | –
CCCNC(=O)c1cn(CC)c2cc(N3CCN(C(=O)c4ccco4)CC3)c(F)cc2c1=O [N1–3] | 25 | 79.9% | –
CCn1cc(C(=O)Nc2ncccc2O)c(=O)c2cc(F)c(N3CCN(C(=O)c4ccco4)CC3)cc21 [N1–20] | – | 14.6% | –
COc1ccc(OCc2n(CC(=O)OC3CC(C)CCC3C(C)C)c3ccccc3[n+]2C)cc1 (stereo not drawn) [N2–11] | – | – | MIC (M. tuberculosis H37Rv): 28 µM; Mycobacterium Growth inhibition, MIC (μM) tuberculosis (M. tuberculosis H37Rv; Table 2, this study): 28.2 µM; NAD pool depletion (NAD pool; inhibitor at ~5× MIC added at log-phase, samples over 6 hours): rapid depletion of the NAD pool; log reduction at 25 µM [4]: ≤ 4
